Measurements from PMC7756445, “A Novel Prodrug of a nNOS Inhibitor with Improved Pharmacokinetic Potential” (Chemmedchem, 2020).
Like-named read-outs stand apart in the source and are kept apart here.

What was measured:
[1] = tested on: pepsin, pancreatin; test: Enzymatic stability in simulated fluids with pepsin or pancreatin; type: in vitro ADME; details: 37 °C, 2 h
Experimental: (§1) The effects of gastrointestinal digestion are important parameters to be taken into consideration in the determination of bioavailability and bioactivity of new compounds. In particular, the luminal instability, due to the pH or enzymatic degradation, may compromise the transmucosal transport of the prodrug designed for permeability enhancement. Therefore, in this study the chemical stability of compound 2 was assessed to exclude any undesirable degradation at acid and physiological environments. Hydrochloric acid buffer (pH 2.0) as a nonenzymatic simulated gastric fluid (SGF), and phosphate buffer (pH 7.4) as nonenzymatic simulated intestinal fluid (SIF) were employed to evaluate the chemical stability. […] For chemical stability, a 0.01 M hydrochloric acid buffer (pH 1.3) and 0.01 M phosphate buffer (pH 7.4) were used. To assess enzymatic stability, the same hydrochloric buffer with and without pepsin (10 or 40 mg/mL) and phosphate buffer with and without pancreatin (10 or 40 mg/mL) were used. […] The mixture was vortexed and centrifuged at 2 °C and 10 000 rpm, Swing‐out Rotor, for 10 min, and the content of tested compound in the supernatant was analyzed by HPLC. Experiments were run in triplicate and the mean values of the rate constants were calculated.

[2] = Chemical stability in nonenzymatic simulated gastric and intestinal fluids; type: physicochemical; details: 2 h
Experimental: as §1

[3] = Log D and log P by shake-flask method; type: physicochemical; details: n-octanol/aqueous buffer
Text: The herein presented amidoxime 2 was designed as prodrug of the amidine 1 to improve membrane permeability and oral bioavailability. In this context, the deepening of the physicochemical properties is essential to obtain a favorable pharmacological profile. Therefore, we investigated the lipophilicity, the passive permeation through the human GI tract through the PAMPA assays, and the chemical and enzymatic stabilities in simulated GI fluids and plasma. […] In this study, the lipophilicity of our compounds was determined by means of the “shake‐flask method” and compared to the corresponding values calculated by the software. ^[43] However, for ionizable compounds, the distribution coefficient (log D) should be used instead of log P in the pH range where ionic species exist. ^[44] In this study, log P and log D were calculated (Table 1).
The column was a Waters Symmetry RP‐C18 column (4.6×150 mm, 5 μm). The mobile phase was a mixture of TFA 0.01 M/ACN/(MeOH/THF 90 : 10) 20/52/28 and the flow rate was 0.7 mL/min. The UV detector was set at a length of 254 nm.
Both n‐octanol and aqueous buffer (pH 1.4, 6.5 and 9.4) solutions were saturated of each other. 2 mg of tested compound was dissolved in 500 μL of organic phase and mixed with an equal volume of aqueous buffer by repeated inversions of up to 200 times for 5 min and then allowed to stand for 30 min for the phases to fully separate. Thereafter, the respective phases were analyzed by HPLC.

[4] = Stability in human plasma; type: in vitro ADME; details: 37 °C
Experimental: Finally, the stability in human plasma was assessed.
Human plasma was purchased from 3H Biomedical (Uppsala, Sweden). For the determination of enzymatic stability in human plasma, the reactions were initiated by adding 50 μL of compound stock solution to 450 μL of pre‐heated plasma, and incubated at 37±0.5 °C. At appropriate time intervals, 50 μL of the plasma were taken and deproteinized by the addition of 450 μL of CH3CN. After mixing and centrifugation for 10 min at 10 000 rpm, the supernatant (5 μL) was analyzed by HPLC, adopting the same chromatographic conditions described for chemical stability evaluations. ^[48]

[5] = PAMPA-BBB assay; set-up: Papp at 18 h: dose or concentration left out as unconfirmed; details: porcine polar brain lipid, 18 h
Experimental: The relative passive transcellular diffusion of compounds, expressed as permeability coefficient (Pe), was determined with a permeability equation. ^[45] The permeabilities of 1, 2, and 1400 W were determined at pH 5.0, 6.5, and 7.4 to mimic the physiological conditions of the GI tract (Table 1). […] As the new prodrug was designed for the potential treatment of neurodegenerative diseases, an important parameter is its capability to cross the BBB.
PAMPA‐BBB assays were performed following the same procedure described above for PAMPA‐GI. Briefly, an artificial membrane consisting in a porcine polar brain lipid extract mixture (purchased from Avantis Polar Lipids, Alabaster, AL, USA) and an incubation time of 18 h were adopted as experimental conditions.

[6] = biological target: T1, B5 and B5R (Homo sapiens, UniProt O43169+P00387); test: Bioconversion control experiment without mARC; type: in vitro ADME; details: B5 and B5R only, no mARC; NADH assay
T1 sequence (O43169 16-150): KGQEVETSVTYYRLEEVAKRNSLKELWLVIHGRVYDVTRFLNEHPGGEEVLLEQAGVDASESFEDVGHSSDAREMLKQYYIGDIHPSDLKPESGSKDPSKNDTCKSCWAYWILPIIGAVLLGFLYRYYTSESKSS
T1 sequence (P00387 24-301 limits assumed): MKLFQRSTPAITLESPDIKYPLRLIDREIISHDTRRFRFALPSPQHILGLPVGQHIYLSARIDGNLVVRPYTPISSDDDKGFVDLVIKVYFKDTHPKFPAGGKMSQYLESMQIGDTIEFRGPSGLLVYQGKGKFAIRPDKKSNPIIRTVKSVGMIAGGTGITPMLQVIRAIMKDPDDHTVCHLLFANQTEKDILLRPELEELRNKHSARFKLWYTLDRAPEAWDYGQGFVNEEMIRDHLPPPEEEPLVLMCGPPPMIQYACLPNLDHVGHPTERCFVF

enzymatic stability in SGF with pepsin ([1]; pH 1.3, pepsin 10 or 40 mg/mL): stable
enzymatic stability in SIF with pancreatin ([1]; pH 7.4, pancreatin 10 or 40 mg/mL): stable
chemical stability in nonenzymatic simulated gastric fluid (SGF) ([2]; hydrochloric acid buffer pH 2.0 (method: pH 1.3), 37 °C): stable
chemical stability in nonenzymatic simulated intestinal fluid (SIF) ([2]; phosphate buffer pH 7.4, 37 °C): stable
logD ([3]; pH 1.4, n-octanol/aqueous buffer pH 1.4, mean ± SD of three, read-out: log D 1.4): -0.16
logD ([3]; pH 1.4, pH 1.4 to 9.4, range stated in text, read-out: log D values over the pH values tested): -0.16 to 0.39
logD ([3]; pH 6.5, n-octanol/aqueous buffer pH 6.5, mean ± SD of three, read-out: log D 6.5): 0.29
logD ([3]; pH 9.4, n-octanol/aqueous buffer pH 9.4, mean ± SD of three, read-out: log D 9.4): 0.39
logP ([3]; shake-flask, as free amine, mean ± SD of three): 3.24
stability in human plasma [4]: stable
Papp at 18 h ([5]; pig, PAMPA, PAMPA-BBB permeability Pe): > 4 ×10⁻⁶ cm/s
conversion to the amidine 1 in control experiment [6]: no conversion
Compound: C/C(=N\O)NC(c1ccccc1)c1ccccc1 [Compound 2, (1E)‐N‐(diphenylmethyl)‐N′‐hydroxyethanimidamide]
PAMPA-BBB permeation class [5]: CNS+ (CNS+ (indicative of high BBB permeation): Pe >4.0)
